Laboratory results published in ChEMBL document CHEMBL5463729, “Data for DCP probe BAY 1753011” (2023).

Assays:
Conditions in all cases: Compound concentration 10.0 uM
[1] = target: Dual specificity protein kinase CLK1 (Homo sapiens) (UniProt P49759); test: Inhibition of CLK1(h) at 10.0 µM in the Eurofins Kinase panel
[2] = target: Serine/threonine-protein kinase A-Raf (Homo sapiens) (UniProt P10398); test: Inhibition of A-Raf(h) at 10.0 µM in the Eurofins Kinase panel
[3] = target: T1, cGMP-dependent protein kinase 1 (Homo sapiens) (UniProt Q13976); test: Inhibition of PKG1beta(h) at 10.0 µM in the Eurofins Kinase panel
T1 sequence (whole entry): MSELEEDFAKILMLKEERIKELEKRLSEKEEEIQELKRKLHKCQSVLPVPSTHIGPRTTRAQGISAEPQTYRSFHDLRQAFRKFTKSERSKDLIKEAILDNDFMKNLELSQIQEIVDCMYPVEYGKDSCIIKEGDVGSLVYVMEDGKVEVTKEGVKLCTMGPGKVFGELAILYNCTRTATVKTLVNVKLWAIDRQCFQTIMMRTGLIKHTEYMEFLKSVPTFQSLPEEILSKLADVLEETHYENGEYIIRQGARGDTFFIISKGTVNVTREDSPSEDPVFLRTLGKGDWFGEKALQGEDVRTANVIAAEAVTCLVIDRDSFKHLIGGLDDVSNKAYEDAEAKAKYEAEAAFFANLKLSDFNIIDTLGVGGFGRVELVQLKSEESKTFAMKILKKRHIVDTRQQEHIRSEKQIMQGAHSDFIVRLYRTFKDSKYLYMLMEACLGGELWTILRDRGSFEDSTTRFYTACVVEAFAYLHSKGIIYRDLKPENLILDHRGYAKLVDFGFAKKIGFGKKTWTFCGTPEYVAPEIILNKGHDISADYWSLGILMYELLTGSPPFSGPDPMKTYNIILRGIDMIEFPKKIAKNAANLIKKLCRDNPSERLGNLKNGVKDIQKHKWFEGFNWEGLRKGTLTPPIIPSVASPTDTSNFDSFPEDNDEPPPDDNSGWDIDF

[4] = target: GABA-A receptor; anion channel (Rattus norvegicus) (UniProt O09028+P15431+P18506+P18508+P19969+P20236+P23574+P23576+P28471+P28473+P30191+P62813+P63079+P63138+Q91ZM7+Q9ES14)
[5] = target: CDK17/Cyclin-Y (Homo sapiens) (UniProt Q00537+Q8ND76); test: Inhibition of CDK17/cyclinY(h) at 10.0 µM in the Eurofins Kinase panel; format: protein-complex assay
[6] = target: MAP kinase-interacting serine/threonine-protein kinase 2 (Homo sapiens) (UniProt Q9HBH9); test: Inhibition of Mnk2(h) at 10.0 µM in the Eurofins Kinase panel
[7] = target: Ribosomal protein S6 kinase alpha-2 (Homo sapiens) (UniProt Q15349); test: Inhibition of Rsk3(h) at 10.0 µM in the Eurofins Kinase panel
[8] = target: G protein-coupled receptor kinase 4 (Homo sapiens) (UniProt P32298); test: Inhibition of GRK4(h) at 10.0 µM in the Eurofins Kinase panel
[9] = target: B2 bradykinin receptor (Homo sapiens) (UniProt P30411)
[10] = target: Cyclin-dependent kinase 14/Cyclin-Y (Homo sapiens) (UniProt O94921+Q8ND76); test: Inhibition of CDK14/cyclinY(h) at 10.0 µM in the Eurofins Kinase panel; format: protein-complex assay
[11] = target: Tyrosine-protein kinase ITK/TSK (Homo sapiens) (UniProt Q08881); test: Inhibition of Itk(h) at 10.0 µM in the Eurofins Kinase panel
[12] = target: Alpha-1B adrenergic receptor (Homo sapiens) (UniProt P35368)
[13] = target: Phosphorylase b kinase gamma catalytic chain, testis/liver isoform (Homo sapiens) (UniProt P15735); test: Inhibition of PhKgamma2(h) at 10.0 µM in the Eurofins Kinase panel
[14] = target: Tyrosine-protein kinase Fyn (Homo sapiens) (UniProt P06241); test: Inhibition of Fyn(h) at 10.0 µM in the Eurofins Kinase panel
[15] = target: 5-hydroxytryptamine receptor 2A (Homo sapiens) (UniProt P28223)
[16] = target: G protein-coupled receptor kinase 6 (Homo sapiens) (UniProt P43250); test: Inhibition of GRK6(h) at 10.0 µM in the Eurofins Kinase panel
[17] = target: NT-3 growth factor receptor (Homo sapiens) (UniProt Q16288); test: Inhibition of TrkC(h) at 10.0 µM in the Eurofins Kinase panel
[18] = target: Serine/threonine-protein kinase STK11 (Homo sapiens) (UniProt Q15831); test: Inhibition of LKB1(h) at 10.0 µM in the Eurofins Kinase panel
[19] = target: LIM domain kinase 2 (Homo sapiens) (UniProt P53671); test: Inhibition of LIMK2(h) at 10.0 µM in the Eurofins Kinase panel
[20] = target: Serine/threonine-protein kinase pim-3 (Homo sapiens) (UniProt Q86V86); test: Inhibition of Pim-3(h) at 10.0 µM in the Eurofins Kinase panel
[21] = target: Serine/threonine-protein kinase VRK2 (Homo sapiens) (UniProt Q86Y07); test: Inhibition of VRK2(h) at 10.0 µM in the Eurofins Kinase panel
[22] = target: Serine/threonine-protein kinase VRK1 (Homo sapiens) (UniProt Q99986); test: Inhibition of VRK1(h) at 10.0 µM in the Eurofins Kinase panel
[23] = target: CDK9/cyclin T1 (Homo sapiens) (UniProt O60563+P50750); test: Inhibition of CDK9/cyclin T1(h) at 10.0 µM in the Eurofins Kinase panel; format: protein-complex assay
[24] = target: Proto-oncogene tyrosine-protein kinase ROS (Homo sapiens) (UniProt P08922); test: Inhibition of Ros(h) at 10.0 µM in the Eurofins Kinase panel
[25] = target: Ribosomal protein S6 kinase alpha-5 (Homo sapiens) (UniProt O75582); test: Inhibition of MSK1(h) at 10.0 µM in the Eurofins Kinase panel
[26] = target: Glucocorticoid receptor (Homo sapiens) (UniProt P04150)
[27] = target: Phosphatidylinositol 4-phosphate 5-kinase type-1 gamma (Homo sapiens) (UniProt O60331); test: Inhibition of PIP5K1g(h) at 10.0 µM in the Eurofins Kinase panel
[28] = target: Endothelin receptor type B (Homo sapiens) (UniProt P24530)
[29] = target: Histamine H4 receptor (Homo sapiens) (UniProt Q9H3N8)
[30] = target: Histamine H3 receptor (Homo sapiens) (UniProt Q9Y5N1)
Histamine H3 receptor (Homo sapiens), sequence (Q9Y5N1 whole entry): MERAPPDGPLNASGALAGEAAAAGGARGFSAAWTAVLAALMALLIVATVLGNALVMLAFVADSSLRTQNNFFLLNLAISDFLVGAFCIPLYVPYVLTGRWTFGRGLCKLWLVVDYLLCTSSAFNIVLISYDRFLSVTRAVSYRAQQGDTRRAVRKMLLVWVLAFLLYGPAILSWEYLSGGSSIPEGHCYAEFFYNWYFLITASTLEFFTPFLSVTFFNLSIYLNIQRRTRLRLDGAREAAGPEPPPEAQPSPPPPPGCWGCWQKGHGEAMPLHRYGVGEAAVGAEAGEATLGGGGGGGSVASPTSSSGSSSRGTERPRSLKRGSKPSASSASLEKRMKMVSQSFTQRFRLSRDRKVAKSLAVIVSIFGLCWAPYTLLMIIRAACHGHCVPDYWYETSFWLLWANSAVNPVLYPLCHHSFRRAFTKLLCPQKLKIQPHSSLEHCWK

5-hydroxytryptamine receptor 2A (Homo sapiens), sequence (P28223 whole entry): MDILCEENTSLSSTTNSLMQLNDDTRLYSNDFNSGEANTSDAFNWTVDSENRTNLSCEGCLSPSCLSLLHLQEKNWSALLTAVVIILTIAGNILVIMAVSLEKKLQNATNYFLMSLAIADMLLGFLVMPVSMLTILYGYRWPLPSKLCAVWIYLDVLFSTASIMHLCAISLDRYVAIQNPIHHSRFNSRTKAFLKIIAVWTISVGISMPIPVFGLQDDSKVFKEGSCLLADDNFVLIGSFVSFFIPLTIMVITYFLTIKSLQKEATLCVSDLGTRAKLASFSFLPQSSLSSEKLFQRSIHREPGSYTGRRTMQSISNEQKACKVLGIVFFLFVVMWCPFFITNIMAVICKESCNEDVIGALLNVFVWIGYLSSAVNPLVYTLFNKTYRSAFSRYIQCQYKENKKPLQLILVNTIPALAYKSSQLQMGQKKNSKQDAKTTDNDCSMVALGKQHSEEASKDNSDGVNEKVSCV
Alpha-1B adrenergic receptor (Homo sapiens), sequence (P35368 whole entry, canonical isoform): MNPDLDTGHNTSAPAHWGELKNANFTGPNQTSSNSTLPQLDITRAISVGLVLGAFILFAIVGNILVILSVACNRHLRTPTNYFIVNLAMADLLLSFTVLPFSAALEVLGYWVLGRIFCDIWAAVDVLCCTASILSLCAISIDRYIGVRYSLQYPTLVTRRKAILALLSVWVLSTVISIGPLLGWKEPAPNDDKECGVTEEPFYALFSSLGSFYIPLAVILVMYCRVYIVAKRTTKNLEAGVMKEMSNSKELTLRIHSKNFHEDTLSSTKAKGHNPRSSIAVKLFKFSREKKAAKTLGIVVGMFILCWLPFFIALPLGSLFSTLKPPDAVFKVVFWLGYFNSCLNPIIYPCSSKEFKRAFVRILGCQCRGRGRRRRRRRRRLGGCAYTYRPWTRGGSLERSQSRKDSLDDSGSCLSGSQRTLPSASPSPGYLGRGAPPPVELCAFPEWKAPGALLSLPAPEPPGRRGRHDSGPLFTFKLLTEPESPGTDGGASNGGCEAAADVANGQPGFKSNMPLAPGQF
Histamine H4 receptor (Homo sapiens), sequence (Q9H3N8 whole entry): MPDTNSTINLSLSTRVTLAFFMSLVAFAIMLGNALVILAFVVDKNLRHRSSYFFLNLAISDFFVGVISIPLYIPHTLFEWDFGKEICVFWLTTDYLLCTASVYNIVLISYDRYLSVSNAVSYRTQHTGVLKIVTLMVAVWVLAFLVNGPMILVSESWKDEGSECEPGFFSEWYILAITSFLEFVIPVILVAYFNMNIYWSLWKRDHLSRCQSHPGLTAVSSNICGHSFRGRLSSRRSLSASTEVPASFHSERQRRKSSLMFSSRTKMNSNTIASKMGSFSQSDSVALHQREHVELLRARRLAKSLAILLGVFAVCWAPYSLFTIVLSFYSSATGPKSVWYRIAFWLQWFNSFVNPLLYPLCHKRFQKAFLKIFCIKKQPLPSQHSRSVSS
Proto-oncogene tyrosine-protein kinase ROS (Homo sapiens), sequence (P08922 whole entry): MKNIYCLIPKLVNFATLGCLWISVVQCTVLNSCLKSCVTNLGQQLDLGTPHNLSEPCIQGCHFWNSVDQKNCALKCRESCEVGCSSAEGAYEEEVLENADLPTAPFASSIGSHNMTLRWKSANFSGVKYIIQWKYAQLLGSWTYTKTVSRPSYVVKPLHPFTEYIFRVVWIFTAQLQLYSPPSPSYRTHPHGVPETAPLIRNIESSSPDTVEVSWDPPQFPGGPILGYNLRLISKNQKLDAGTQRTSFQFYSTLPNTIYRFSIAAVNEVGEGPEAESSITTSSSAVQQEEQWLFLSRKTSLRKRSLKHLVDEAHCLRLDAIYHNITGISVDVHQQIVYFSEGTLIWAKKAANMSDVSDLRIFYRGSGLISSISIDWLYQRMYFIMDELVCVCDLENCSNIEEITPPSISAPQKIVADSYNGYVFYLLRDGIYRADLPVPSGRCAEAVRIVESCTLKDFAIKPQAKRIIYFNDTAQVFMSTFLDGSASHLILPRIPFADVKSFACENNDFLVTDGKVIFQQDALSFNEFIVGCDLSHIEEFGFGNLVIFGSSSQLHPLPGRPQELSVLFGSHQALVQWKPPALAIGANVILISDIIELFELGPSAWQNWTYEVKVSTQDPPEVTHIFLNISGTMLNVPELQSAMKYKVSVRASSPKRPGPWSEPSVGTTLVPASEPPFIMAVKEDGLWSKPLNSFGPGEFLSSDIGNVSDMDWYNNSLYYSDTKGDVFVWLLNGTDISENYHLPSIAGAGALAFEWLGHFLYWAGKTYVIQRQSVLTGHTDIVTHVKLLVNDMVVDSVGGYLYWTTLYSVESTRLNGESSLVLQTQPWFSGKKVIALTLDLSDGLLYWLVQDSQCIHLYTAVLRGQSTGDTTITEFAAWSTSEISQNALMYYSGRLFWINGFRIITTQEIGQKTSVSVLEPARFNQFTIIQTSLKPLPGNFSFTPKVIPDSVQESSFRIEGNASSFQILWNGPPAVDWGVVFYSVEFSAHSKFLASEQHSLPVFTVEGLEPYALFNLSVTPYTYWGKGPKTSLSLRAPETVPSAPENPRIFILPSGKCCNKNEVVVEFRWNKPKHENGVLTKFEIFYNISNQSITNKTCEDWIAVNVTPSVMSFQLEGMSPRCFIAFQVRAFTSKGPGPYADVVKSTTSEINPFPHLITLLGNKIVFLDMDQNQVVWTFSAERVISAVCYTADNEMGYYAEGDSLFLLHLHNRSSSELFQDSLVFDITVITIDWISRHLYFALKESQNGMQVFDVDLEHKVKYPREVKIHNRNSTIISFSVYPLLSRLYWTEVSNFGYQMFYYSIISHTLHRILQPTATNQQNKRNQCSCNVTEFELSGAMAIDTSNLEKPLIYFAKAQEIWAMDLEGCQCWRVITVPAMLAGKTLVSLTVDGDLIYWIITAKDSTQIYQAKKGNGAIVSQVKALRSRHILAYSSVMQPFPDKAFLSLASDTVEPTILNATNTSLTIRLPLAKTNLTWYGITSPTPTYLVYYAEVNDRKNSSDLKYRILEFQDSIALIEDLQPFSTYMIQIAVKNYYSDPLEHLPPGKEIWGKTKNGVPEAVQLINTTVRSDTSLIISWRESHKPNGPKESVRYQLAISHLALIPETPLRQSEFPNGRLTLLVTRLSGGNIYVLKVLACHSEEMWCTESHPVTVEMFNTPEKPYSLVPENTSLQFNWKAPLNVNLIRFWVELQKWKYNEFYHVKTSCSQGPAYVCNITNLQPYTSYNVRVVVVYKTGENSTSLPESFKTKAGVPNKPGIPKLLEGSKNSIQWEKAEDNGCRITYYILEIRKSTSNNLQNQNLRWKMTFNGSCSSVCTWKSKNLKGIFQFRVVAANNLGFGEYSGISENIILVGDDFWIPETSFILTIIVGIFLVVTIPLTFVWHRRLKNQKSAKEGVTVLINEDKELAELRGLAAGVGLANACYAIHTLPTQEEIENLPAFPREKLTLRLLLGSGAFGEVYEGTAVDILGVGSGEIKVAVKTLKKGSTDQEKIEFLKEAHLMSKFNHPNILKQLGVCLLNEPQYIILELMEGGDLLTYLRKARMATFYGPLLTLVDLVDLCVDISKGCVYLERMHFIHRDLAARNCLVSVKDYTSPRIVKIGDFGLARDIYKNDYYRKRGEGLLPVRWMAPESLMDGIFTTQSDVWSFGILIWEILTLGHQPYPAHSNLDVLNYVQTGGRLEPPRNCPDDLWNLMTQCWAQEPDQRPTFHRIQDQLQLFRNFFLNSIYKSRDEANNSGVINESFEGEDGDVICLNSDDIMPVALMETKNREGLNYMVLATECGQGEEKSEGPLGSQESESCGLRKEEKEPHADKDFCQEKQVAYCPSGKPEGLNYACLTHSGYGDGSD
Glucocorticoid receptor (Homo sapiens), sequence (P04150 whole entry): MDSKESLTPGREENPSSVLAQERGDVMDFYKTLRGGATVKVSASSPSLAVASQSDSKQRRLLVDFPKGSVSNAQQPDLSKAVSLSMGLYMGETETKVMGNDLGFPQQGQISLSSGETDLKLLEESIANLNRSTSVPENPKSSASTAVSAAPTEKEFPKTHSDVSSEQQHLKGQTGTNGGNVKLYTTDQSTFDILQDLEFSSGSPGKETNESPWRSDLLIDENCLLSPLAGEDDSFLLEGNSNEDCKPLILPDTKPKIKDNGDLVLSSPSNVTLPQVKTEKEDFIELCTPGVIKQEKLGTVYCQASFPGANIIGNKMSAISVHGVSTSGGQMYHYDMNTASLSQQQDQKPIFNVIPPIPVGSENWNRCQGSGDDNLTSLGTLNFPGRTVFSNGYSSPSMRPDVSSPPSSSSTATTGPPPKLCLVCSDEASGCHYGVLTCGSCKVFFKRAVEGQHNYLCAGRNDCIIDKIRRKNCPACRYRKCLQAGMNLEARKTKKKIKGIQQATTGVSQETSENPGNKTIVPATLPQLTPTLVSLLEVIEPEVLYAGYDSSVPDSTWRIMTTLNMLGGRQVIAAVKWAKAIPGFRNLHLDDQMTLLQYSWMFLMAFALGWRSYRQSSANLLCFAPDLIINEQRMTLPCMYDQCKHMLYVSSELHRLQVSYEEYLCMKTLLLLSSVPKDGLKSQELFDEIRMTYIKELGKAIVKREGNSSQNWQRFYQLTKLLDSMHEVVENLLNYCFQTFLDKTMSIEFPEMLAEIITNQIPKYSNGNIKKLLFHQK

Structure (SMILES) | inhibition [1] | inhibition [2] | inhibition [3] | inhibition [4] | inhibition [5] | inhibition [6] | inhibition [7] | inhibition [8] | inhibition [9] | inhibition [10] | inhibition [11] | inhibition [12] | inhibition [13] | inhibition [14] | inhibition [15] | inhibition [16] | inhibition [17] | inhibition [18] | inhibition [19] | inhibition [20] | also measured
O=c1n(Cc2cncn2-c2cccc(Cl)c2)nc(-c2ccc(Cl)cc2)n1C[C@H](O)C(F)(F)F | 7.05% | 2.57% | -1.12% | -1% | 3.78% | -0.78% | -0.87% | -1.52% | -10% | -0.16% | -2.65% | -2.47% | -3.49% | 5.53% | -2.02% | -0.21% | 0.07% | 1.85% | 1.5% | 4.9% | inhibition [21]: 10.4%; inhibition [22]: 15.7%; inhibition [23]: -1.79%; inhibition [24]: 3.23%; inhibition [25]: -0.53%; inhibition [26]: 32%; inhibition [27]: -0.37%; inhibition [28]: 1%; inhibition [29]: 0.51%; inhibition [30]: 5.05%
C[C@H](O)c1nc(Cn2nc(-c3ccc(Cl)cc3)n(C[C@H](O)C(F)(F)F)c2=O)nn1-c1cccc(Cl)c1 [PECAVAPTAN] | 7.77% | 1.05% | 1.79% | -1% | 5.47% | 3.54% | 9.71% | -0.06% | 1% | -0.61% | -7.19% | -5.25% | 0.74% | -1.76% | 0.62% | 1.15% | -6.4% | -1.51% | 0.25% | 3.06% | inhibition [21]: 6.61%; inhibition [22]: 12.3%; inhibition [23]: -3.05%; inhibition [24]: -1.01%; inhibition [25]: -5.91%; inhibition [26]: 1%; inhibition [27]: -2.06%; inhibition [28]: 5%; inhibition [29]: -1.47%; inhibition [30]: 11.9%
